In ChEMBL document CHEMBL5104196, “Discovery of Novel, Potent, and Selective Small-Molecule Menin-Mixed Lineage Leukemia Interaction Inhibitors through Attempting Introduction of Hydrophilic Groups” (J Med Chem, 2022):
In brackets after ≈: the same amount, converted by molar mass. Activity calls are given as the source filed them. The rule behind the calls is not given here.

Legend:
[1] = Metabolic stability in Crab eating monkey liver microsome assessed as intrinsic clearance measured upto 60 min by UPLC-MS/MS analysis; assay type: ADME, Macaca fascicularis; conditions: cynomolgus monkey, microsomes, 1 h
[2] = Cmax in Sprague-Dawley rat at 15 mg/kg, po; assay type: ADME, organism-based; parameters: dose 15 mg/kg, route po; conditions: in vivo
[3] = Tmax in Sprague-Dawley rat at 15 mg/kg, po; assay type: ADME, organism-based; conditions: in vivo
Homo sapiens [4] = species on record: Homo sapiens; assay: Inhibition of GAMK (unknown origin) at 1 uM in presence of ATP at Km concentration by Mobility shift assay relative to control
[5] = target: Casein kinase I (Homo sapiens) (UniProt Q9HCP0+P78368+P48730+P49674+P48729); assay: Inhibition of CK1 (unknown origin) at 1 uM in presence of ATP at Km concentration by Mobility shift assay relative to control; assay type: protein assay
MV4-11 [6] = assay: Reversible differentiation arrest in human MV4-11 cells at 0.1 to 10 uM measured after 7 days by flow cytometric analysis; assay type: functional, cell-based; conditions: dose 0.1-10 µM, time 7.0 day
[7] = Half life in Sprague-Dawley rat at 15 mg/kg, po; assay type: ADME, organism-based; conditions: in vivo
[8] = Metabolic stability in Crab eating monkey liver microsome assessed as compound remaining measured after 60 min by UPLC-MS/MS analysis; assay type: ADME, Macaca fascicularis; conditions: cynomolgus monkey, liver microsomes, read-out: Stability
MV4-11 [9] = assay: Antitumor activity against human MV4-11 cells xenografted in BALB/c nude mouse assessed as tumor growth inhibition at 6 mg/kg, po administered every second day for 16 days by calipers analysis; assay type: functional; conditions: MV4-11, 384 h, time 16 day, read-out: TGI
[10] = AUC (0 to infinity) in Sprague-Dawley rat at 15 mg/kg, po; assay type: ADME, organism-based; parameters: time infinity, dose 15 mg/kg, route po; conditions: in vivo
MV4-11 [11] = assay: Suppression of MEIS1 gene transcription in human MV4-11 cells xenografted in BALB/c nude mouse at 15 mg/kg, iv measured after 24 hrs by RT-PCR analysis; assay type: functional, organism-based
MV4-11 [12] = assay: Antiproliferative activity against human MV4-11 cells assessed as reduction in cell viability measured for 3 days followed by replacement with fresh medium of compound and measured after 72 hrs by cell counting assay; assay type: functional, cell-based; conditions: MV4-11, 72 h
MV4-11 [13] = assay: Induction of apoptosis in human MV4-11 cells incubated for 24 hrs by annexinV/PI staining based flow cytometry analysis; assay type: functional, cell-based; conditions: dose 0.1-10 µM, DDE = dose-dependent effect
[14] = Volume of distribution at steady state in Sprague-Dawley rat at 15 mg/kg, po; assay type: ADME, organism-based; conditions: in vivo
[15] = Metabolic stability in human liver microsome assessed as half life measured upto 60 min by UPLC-MS/MS analysis; assay type: ADME; conditions: liver microsomes
[16] = Metabolic stability in Crab eating monkey liver assessed as intrinsic clearance measured upto 60 min by UPLC-MS/MS analysis; assay type: ADME, tissue-based, Macaca fascicularis; conditions: cynomolgus monkey, read-out: CLH
MV4-11 [17] = assay: Antiproliferative activity against human MV4-11 cells assessed as reduction in cell viability measured for 3 days by cell counting assay; assay type: functional, cell-based; conditions: MV4-11, 72 h
[18] = Metabolic stability in Sprague-Dawley rat liver microsome assessed as half life measured upto 60 min by UPLC-MS/MS analysis; assay type: ADME; conditions: liver microsomes
[19] = AUC (0 to t) in Sprague-Dawley rat at 15 mg/kg, po; assay type: ADME, organism-based; parameters: dose 15 mg/kg, route po; conditions: in vivo
MV4-11 [20] = assay: Induction of cell cycle arrest in human MV4-11 cells assessed as accumulation at S phase at 0.1 to 10 uM incubated for 24 hrs by PI/RNase staining based flow cytometry analysis; assay type: functional; conditions: dose 0.1-10 µM
Homo sapiens [21] = species on record: Homo sapiens; assay: Inhibition of STE (unknown origin) at 1 uM in presence of ATP at Km concentration by Mobility shift assay relative to control
Homo sapiens [22] = species on record: Homo sapiens; assay: Inhibition of AGC (unknown origin) at 1 uM in presence of ATP at Km concentration by Mobility shift assay relative to control
[23] = Metabolic stability in human liver microsome assessed as compound remaining measured after 60 min by UPLC-MS/MS analysis; assay type: ADME; conditions: liver microsomes, read-out: Stability
Homo sapiens [24] = species on record: Homo sapiens; assay: Inhibition of CMGC (unknown origin) at 1 uM in presence of ATP at Km concentration by Mobility shift assay relative to control
[25] = MRT in Sprague-Dawley rat at 5 mg/kg, iv; assay type: ADME, organism-based; conditions: in vivo
Homo sapiens [26] = species on record: Homo sapiens; assay: Inhibition of TKL (unknown origin) at 1 uM in presence of ATP at Km concentration by Mobility shift assay relative to control
MV4-11 [27] = assay: Antitumor activity against human MV4-11 cells xenografted in BALB/c nude mouse assessed as tumor growth inhibition at 30 mg/kg, po administered every second day for 16 days by calipers analysis; assay type: functional; conditions: MV4-11, 384 h, time 16 day, read-out: TGI
[28] = Metabolic stability in Beagle dog liver microsome assessed as compound remaining measured after 60 min by UPLC-MS/MS analysis; assay type: ADME, Canis lupus familiaris; conditions: liver microsomes, read-out: Stability
[29] = AUC (0 to t) in Sprague-Dawley rat at 5 mg/kg, iv; assay type: ADME, organism-based; parameters: dose 5 mg/kg, route iv; conditions: in vivo
Homo sapiens [30] = species on record: Homo sapiens; assay: Inhibition of tyrosine kinase (unknown origin) at 1 uM in presence of ATP at Km concentration by Mobility shift assay relative to control
[31] = AUC (0 to infinity) in Sprague-Dawley rat at 5 mg/kg, iv; assay type: ADME, organism-based; parameters: time infinity, dose 5 mg/kg, route iv; conditions: in vivo
[32] = Metabolic stability in CD-1 mouse liver assessed as intrinsic clearance measured upto 60 min by UPLC-MS/MS analysis; assay type: ADME, tissue-based; conditions: read-out: CLH
[33] = Metabolic stability in Beagle dog liver microsome assessed as half life measured upto 60 min by UPLC-MS/MS analysis; assay type: ADME, Canis lupus familiaris; conditions: liver microsomes
[34] = Cmax in Sprague-Dawley rat at 5 mg/kg, iv; assay type: ADME, organism-based; parameters: dose 5 mg/kg, route iv; conditions: in vivo
[35] = Solubility of compound in phosphate buffer at pH 7.4 by spectrophotometric analysis; assay type: physicochemical
[36] = Total clearance in Sprague-Dawley rat at 15 mg/kg, po; assay type: ADME, organism-based; conditions: in vivo
MV4-11 [37] = assay: Induction of cell differentiation in human MV4-11 cells assessed as increase in CD11b expression at 10 uM measured after 7 days by flow cytometric analysis; assay type: functional, cell-based; conditions: time 7.0 day
[38] = MRT in Sprague-Dawley rat at 15 mg/kg, po; assay type: ADME, organism-based; conditions: in vivo
[39] = target: Menin/Histone-lysine N-methyltransferase MLL (Homo sapiens, UniProt O00255); assay: Inhibition of Menin/fluorescein labeled MLL(4 to 43 residues) (unknown origin) protein protein interaction incubated for 1 hr by fluorescence polarization-based competitive binding assay
Sequence of Menin/Histone-lysine N-methyltransferase MLL (O00255 whole entry, the tested form may be a part): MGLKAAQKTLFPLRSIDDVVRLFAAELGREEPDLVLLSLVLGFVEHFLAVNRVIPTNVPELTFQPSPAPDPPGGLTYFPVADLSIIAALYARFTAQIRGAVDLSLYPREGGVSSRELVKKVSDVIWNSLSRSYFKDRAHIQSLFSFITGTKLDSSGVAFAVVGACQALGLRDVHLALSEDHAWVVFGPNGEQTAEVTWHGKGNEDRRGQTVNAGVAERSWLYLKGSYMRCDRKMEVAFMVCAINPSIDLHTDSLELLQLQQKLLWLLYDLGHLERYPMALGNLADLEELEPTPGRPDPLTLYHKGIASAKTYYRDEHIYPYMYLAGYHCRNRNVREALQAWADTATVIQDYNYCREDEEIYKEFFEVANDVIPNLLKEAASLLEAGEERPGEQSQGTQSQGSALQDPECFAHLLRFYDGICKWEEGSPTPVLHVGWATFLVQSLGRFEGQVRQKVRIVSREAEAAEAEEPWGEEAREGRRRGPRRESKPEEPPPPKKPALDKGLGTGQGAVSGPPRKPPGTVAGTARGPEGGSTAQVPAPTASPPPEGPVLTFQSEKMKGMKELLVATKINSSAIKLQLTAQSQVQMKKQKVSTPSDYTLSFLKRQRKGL
Sequence of Menin/Histone-lysine N-methyltransferase MLL (Q03164 1-2718 partner limits assumed): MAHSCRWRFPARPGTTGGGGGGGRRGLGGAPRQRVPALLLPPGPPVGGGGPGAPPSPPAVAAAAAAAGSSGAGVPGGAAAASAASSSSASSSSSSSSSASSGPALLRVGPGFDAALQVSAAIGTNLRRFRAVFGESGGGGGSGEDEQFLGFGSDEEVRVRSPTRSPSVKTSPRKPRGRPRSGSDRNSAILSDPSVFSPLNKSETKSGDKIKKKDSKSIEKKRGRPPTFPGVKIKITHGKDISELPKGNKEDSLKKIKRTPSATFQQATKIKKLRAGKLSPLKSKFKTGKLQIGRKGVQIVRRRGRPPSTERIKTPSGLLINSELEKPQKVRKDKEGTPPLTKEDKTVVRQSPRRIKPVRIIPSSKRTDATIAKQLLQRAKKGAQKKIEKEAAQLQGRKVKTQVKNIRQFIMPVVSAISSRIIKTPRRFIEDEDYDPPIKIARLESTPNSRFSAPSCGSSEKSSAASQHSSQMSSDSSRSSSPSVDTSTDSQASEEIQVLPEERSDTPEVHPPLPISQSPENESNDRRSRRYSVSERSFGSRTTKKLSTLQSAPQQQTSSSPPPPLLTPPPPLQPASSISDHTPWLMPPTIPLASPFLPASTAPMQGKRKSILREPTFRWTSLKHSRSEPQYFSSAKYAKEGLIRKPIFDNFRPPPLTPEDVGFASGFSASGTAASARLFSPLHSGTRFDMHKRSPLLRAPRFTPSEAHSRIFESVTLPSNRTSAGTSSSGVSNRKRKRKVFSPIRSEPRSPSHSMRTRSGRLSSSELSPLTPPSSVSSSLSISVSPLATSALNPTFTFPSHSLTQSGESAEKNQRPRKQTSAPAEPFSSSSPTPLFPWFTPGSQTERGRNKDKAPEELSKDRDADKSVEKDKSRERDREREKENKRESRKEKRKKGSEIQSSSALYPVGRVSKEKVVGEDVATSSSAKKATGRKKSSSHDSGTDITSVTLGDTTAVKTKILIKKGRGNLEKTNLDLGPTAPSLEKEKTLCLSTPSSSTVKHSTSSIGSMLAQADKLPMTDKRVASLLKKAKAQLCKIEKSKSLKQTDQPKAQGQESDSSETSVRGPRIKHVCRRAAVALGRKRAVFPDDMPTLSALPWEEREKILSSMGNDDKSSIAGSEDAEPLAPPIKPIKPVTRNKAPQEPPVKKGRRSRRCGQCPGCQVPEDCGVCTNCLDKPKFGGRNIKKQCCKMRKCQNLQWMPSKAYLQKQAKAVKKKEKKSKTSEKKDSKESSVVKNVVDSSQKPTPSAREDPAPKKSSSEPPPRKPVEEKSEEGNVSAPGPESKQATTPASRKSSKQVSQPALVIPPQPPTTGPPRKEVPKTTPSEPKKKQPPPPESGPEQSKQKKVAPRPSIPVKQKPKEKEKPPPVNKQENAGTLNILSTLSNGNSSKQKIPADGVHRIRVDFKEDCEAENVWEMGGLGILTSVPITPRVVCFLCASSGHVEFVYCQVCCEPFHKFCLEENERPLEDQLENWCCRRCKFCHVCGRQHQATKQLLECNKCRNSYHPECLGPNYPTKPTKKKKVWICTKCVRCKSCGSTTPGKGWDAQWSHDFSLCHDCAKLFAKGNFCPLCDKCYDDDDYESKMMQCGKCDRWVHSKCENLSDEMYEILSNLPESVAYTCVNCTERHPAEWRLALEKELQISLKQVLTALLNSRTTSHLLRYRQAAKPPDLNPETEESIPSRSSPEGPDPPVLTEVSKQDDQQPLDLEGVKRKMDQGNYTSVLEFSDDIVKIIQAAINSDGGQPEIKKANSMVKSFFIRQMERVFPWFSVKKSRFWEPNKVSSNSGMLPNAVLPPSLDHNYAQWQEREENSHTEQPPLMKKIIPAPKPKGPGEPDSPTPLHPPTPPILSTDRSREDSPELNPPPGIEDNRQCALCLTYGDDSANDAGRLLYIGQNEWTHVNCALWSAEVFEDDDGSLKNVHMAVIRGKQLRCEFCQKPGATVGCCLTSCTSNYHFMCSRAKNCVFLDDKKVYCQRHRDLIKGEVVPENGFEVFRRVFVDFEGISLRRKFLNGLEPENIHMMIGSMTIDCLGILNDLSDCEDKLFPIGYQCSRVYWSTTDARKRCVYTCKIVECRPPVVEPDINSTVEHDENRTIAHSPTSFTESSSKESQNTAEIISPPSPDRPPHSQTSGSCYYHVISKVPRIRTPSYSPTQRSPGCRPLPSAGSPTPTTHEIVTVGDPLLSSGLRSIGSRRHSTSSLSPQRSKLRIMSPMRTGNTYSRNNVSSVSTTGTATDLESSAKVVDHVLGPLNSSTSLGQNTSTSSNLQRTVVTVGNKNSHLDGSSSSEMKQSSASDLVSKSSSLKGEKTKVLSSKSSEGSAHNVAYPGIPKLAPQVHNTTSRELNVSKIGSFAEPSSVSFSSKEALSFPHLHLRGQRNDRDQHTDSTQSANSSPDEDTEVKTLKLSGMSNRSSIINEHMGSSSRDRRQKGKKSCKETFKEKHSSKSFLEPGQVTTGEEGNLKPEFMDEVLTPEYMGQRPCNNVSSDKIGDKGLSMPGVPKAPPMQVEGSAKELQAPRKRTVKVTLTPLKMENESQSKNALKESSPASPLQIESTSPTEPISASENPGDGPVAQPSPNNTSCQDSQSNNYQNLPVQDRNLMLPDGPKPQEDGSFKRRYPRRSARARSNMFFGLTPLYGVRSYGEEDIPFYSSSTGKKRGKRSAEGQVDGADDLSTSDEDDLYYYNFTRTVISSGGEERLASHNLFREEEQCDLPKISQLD
Sequence of Menin/Histone-lysine N-methyltransferase MLL (Q03164 2719-3969 partner limits assumed): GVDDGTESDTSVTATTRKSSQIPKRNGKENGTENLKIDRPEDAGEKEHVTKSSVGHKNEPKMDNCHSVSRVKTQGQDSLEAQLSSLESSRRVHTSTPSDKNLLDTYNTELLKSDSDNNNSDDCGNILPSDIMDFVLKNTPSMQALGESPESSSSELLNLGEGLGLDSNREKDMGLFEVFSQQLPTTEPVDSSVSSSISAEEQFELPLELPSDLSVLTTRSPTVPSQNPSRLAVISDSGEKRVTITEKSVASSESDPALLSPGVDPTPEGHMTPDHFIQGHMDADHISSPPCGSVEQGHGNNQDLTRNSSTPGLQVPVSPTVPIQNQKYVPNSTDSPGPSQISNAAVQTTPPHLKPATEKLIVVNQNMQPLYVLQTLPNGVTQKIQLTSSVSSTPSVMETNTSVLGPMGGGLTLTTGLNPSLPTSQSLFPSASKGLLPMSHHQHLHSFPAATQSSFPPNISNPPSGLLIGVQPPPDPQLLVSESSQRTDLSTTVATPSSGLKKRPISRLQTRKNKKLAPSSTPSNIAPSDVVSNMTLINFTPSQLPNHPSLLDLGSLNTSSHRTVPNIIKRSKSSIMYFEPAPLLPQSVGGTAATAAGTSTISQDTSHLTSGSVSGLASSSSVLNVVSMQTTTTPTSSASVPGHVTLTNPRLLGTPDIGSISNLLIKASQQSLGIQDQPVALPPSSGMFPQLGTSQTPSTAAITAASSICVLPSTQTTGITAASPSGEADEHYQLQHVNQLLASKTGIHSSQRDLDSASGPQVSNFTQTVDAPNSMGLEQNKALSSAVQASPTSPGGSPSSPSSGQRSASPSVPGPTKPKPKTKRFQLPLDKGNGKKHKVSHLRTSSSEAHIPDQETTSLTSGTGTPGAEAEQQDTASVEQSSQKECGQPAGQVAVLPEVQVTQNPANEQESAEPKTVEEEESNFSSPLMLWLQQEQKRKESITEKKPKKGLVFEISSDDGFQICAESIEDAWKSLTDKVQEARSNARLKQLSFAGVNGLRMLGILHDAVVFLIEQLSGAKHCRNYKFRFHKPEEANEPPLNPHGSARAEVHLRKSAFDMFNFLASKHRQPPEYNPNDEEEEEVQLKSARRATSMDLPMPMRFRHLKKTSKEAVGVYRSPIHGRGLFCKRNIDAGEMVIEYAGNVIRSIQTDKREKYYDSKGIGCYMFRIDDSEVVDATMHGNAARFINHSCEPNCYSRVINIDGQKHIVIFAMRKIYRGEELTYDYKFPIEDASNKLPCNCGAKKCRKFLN

[40] = Metabolic stability in human liver assessed as intrinsic clearance measured upto 60 min by UPLC-MS/MS analysis; assay type: ADME, tissue-based; conditions: read-out: CLH
[41] = Metabolic stability in Beagle dog liver microsome assessed as intrinsic clearance measured upto 60 min by UPLC-MS/MS analysis; assay type: ADME, Canis lupus familiaris; conditions: microsomes, 1 h
[42] = Metabolic stability in Sprague-Dawley rat liver microsome assessed as compound remaining measured after 60 min by UPLC-MS/MS analysis; assay type: ADME; conditions: liver microsomes, read-out: Stability
[43] = Total clearance in Sprague-Dawley rat at 5 mg/kg, iv; assay type: ADME, organism-based; conditions: in vivo
[44] = Metabolic stability in CD-1 mouse liver microsome assessed as compound remaining measured after 60 min by UPLC-MS/MS analysis; assay type: ADME; conditions: liver microsomes, read-out: Stability
[45] = Metabolic stability in CD-1 mouse liver microsome assessed as half life measured upto 60 min by UPLC-MS/MS analysis; assay type: ADME; conditions: liver microsomes

CLint [1]: 22 µL/min/mg
Cmax [2]: 56.7 ng/mL
Tmax [3]: 7.3 h
inhibition (Homo sapiens [4]): < 25%
inhibition [5]: < 25%
half-life [7]: 15.5 h
remaining at 1 h [8]: 52%
AUC(0-inf) [10]: 1480 ng·h/mL
IC50 (MV4-11 [12]): 300 nM
Vdss [14]: 23 L/kg
half-life [15]: 3.2 h
CLint scaled [16]: 31.7 mL/min/kg
IC50 (MV4-11 [17]): 360 nM
half-life [18]: 2.75 h
AUC(0-t) [19]: 864 ng·h/mL
inhibition (Homo sapiens [21]): < 25%
inhibition (Homo sapiens [22]): < 25%
remaining at 1 h [23]: 79%
inhibition (Homo sapiens [24]): < 25%
MRT [25]: 7.1 h
inhibition (Homo sapiens [26]): < 25%
remaining at 1 h [28]: 65%
AUC(0-t) [29]: 1700 ng·h/mL
inhibition (Homo sapiens [30]): < 25%
AUC(0-inf) [31]: 2500 ng·h/mL
CLint scaled [32]: 28.2 mL/min/kg
half-life [33]: 1.7 h
Cmax [34]: 1190 ng/mL
solubility [35]: 398 µg/mL (≈ 704 µM)
CL/F [36]: 179 mL/min/kg
MRT [38]: 12 h
IC50 [39]: 7 nM
CLint scaled [40]: 8 mL/min/kg
CLint [41]: 13.9 µL/min/mg
remaining at 1 h [42]: 77%
CL [43]: 34.27 mL/min/kg
remaining at 1 h [44]: 82%
half-life [45]: 3.38 h
Compound: CN(C)CCOc1ccc2ncnc(NC3CCN(CC4CN(c5ccc(S(=O)(=O)C6CC6)cc5)C4)CC3)c2n1
Activity (MV4-11 [6]): Active
inhibition in vivo at 6 mg/kg (MV4-11 [9]): 64%
Activity (MV4-11 [11]): Active
Activity (MV4-11 [13]): Dde
Activity (MV4-11 [20]): Active
inhibition in vivo at 30 mg/kg (MV4-11 [27]): 97%
Activity (MV4-11 [37]): Active
